The target in the data set is ATP-binding cassette sub-family C member 2 (Homo sapiens, UniProt Q92887). The data set can be described thus: TP_TRANSPORTER: uptake in membrane vesicle from MRP2-expressing HEK293T cells. It counts as functional, cell membranes. The following applies: hek293.
ATP-binding cassette sub-family C member 2, sequence (Q92887 whole entry): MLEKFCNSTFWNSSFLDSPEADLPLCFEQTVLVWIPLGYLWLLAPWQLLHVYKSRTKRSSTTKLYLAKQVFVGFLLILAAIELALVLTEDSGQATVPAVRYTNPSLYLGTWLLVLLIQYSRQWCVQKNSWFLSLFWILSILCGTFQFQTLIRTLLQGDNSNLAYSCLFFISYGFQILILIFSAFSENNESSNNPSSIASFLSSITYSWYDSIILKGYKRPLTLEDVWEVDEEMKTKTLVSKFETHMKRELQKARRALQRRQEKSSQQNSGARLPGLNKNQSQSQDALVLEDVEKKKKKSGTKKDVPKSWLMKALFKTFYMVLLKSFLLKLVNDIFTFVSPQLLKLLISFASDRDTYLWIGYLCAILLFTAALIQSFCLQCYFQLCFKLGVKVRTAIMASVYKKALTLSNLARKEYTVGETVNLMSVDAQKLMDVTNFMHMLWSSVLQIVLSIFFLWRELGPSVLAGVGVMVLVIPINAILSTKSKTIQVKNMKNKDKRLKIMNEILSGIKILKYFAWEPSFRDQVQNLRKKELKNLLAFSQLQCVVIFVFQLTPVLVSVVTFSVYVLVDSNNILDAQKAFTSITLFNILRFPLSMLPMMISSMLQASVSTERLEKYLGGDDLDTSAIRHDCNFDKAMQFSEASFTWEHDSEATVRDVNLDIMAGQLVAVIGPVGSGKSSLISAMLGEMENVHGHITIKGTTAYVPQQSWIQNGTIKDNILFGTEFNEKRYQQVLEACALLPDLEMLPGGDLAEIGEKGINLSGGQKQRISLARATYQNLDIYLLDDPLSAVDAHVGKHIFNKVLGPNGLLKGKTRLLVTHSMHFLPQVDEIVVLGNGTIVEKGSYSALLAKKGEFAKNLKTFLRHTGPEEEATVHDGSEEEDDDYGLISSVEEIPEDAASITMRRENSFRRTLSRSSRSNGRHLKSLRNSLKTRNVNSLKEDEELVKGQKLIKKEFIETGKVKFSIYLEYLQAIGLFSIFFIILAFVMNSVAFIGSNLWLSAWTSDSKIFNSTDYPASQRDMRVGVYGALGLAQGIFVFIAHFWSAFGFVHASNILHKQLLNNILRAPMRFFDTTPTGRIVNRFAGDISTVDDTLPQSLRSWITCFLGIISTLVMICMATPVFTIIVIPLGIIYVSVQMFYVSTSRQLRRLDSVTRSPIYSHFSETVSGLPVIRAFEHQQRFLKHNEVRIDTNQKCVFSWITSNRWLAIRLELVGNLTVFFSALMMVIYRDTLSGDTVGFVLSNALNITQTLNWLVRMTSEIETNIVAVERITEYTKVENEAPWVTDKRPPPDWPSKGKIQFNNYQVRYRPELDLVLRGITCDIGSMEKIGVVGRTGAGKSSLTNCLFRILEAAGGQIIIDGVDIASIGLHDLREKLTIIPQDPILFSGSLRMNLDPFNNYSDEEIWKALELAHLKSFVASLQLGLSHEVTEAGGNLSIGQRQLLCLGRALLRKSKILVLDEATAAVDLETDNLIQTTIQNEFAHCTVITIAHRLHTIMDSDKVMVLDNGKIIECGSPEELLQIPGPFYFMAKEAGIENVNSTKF

Consider `CN(CCCC(C[C@@H]1O[C@H](C(=O)O)[C@@H](O)[C@H](O)[C@H]1O)c1cccnc1)N=O` (stereo partly specified), for which the Activity result is “substrate [+]”.

The values above are taken from ChEMBL document CHEMBL2073804, “Transport of the beta -O-glucuronide conjugate of the tobacco-specific carcinogen 4-(methylnitrosamino)-1-(3-pyridyl)-1-butanol (NNAL) by the multidrug resistance protein 1 (MRP1). Requirement for glutathione or a non-sulfur-containing analog” (J Biol Chem, 2001).
